According to the Kinase Knowledgebase extract (Sharma et al. 2016):
Several values for one entry are separate records, joined by “and”; a condition that tells them apart may be missing. Equal entries are not always repeated.

Biological target: EGFR (Human), P00533 [T790M/L858R]
Conditions: nci-h1975

EGFR (Human), P00533 [T790M/L858R], sequence (P00533 whole entry T790M/L858R, looked up): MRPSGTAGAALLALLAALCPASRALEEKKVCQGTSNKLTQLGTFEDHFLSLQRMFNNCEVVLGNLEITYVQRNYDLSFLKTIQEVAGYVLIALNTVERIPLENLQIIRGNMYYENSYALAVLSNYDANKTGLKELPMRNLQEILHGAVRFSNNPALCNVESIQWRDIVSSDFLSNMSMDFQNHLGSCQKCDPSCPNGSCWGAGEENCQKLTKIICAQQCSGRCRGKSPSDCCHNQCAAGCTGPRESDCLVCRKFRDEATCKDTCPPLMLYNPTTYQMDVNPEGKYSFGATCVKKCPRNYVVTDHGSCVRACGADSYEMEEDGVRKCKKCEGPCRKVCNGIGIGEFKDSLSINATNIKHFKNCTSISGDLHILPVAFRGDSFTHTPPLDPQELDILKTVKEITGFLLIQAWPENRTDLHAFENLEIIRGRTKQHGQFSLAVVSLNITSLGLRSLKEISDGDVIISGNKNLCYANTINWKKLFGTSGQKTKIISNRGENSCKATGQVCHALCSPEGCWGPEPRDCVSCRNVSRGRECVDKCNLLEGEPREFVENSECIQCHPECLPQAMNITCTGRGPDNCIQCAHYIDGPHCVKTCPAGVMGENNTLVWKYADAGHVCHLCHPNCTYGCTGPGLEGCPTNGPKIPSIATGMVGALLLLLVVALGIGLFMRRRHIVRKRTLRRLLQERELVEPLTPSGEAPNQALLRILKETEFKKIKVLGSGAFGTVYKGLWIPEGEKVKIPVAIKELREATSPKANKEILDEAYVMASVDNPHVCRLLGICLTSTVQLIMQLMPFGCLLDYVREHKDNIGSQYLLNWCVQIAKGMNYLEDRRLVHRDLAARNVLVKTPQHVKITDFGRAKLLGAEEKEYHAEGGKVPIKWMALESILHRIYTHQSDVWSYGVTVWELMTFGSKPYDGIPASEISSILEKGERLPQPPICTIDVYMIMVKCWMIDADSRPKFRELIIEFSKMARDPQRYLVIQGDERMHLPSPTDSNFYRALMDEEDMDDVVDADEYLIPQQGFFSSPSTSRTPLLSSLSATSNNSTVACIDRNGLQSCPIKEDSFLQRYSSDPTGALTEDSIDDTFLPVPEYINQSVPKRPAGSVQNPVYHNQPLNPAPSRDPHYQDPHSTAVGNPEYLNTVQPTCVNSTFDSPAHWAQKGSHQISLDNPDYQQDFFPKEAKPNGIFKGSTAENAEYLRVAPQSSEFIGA

Compound | EC50
CC(C)n1nc(NC2CCOCC2)c2cnc(Nc3ccnc(-c4cnn(S(=O)(=O)C5CC5)c4)n3)cc21 | 1110 nM
CC(C)n1nc(N2CCC3(CNC(=O)C3)C2)c2cnc(Nc3ccnc(-c4cnn(S(=O)(=O)C5CC5)c4)n3)cc21 (configuration not stated) | 1790 nM
CC(C)n1nc(NCCC(N)=O)c2cnc(Nc3ccnc(-c4cnn(S(=O)(=O)C5CC5)c4)n3)cc21 | 3970 nM
CC[C@H](C)n1nc(N2CC3(COC3)C2)c2cnc(Nc3ccnc(N4CC[C@](C)(O)[C@H](F)C4)n3)cc21 | 874 nM and 631 nM
CCC(C)n1nc(N2C[C@@H](CO)NC2=O)c2cnc(Nc3ccnc(-c4cnn(S(=O)(=O)C5CC5)c4)n3)cc21 (some centres not stated) | 5590 nM
CCC(C)n1nc(N2CC[C@@H](O)C2)c2cnc(Nc3ccnc(N4CCC(S(C)(=O)=O)CC4)n3)cc21 (some centres not stated) | 1110 nM
CC[C@@H](C)n1nc(N2CC3(COC3)C2)c2cnc(Nc3ccnc(N4CC[C@](C)(O)[C@H](F)C4)n3)cc21 | 1160 nM and 851 nM
CCC(C)n1nc(N2CCNC(=O)C2)c2cnc(Nc3ccnc(N4CCC(C)(O)CC4)n3)cc21 (configuration not stated) | 1760 nM
CC(C)n1nc(NCC(C)(C)O)c2cnc(Nc3ccnc(-c4cnn(S(=O)(=O)C5CC5)c4)n3)cc21 | 1200 nM
CC(C)n1nc(NCCC2OCC(N)CO2)c2cnc(Nc3ccnc(N4CCC(C)(O)CC4)n3)cc21 (configuration not stated) | > 10000 nM
CC(C)n1nc(N2CC(C(=O)N3CC[C@@H](CO)C3)C2)c2cnc(Nc3ccnc(-c4cnn(S(=O)(=O)C5CC5)c4)n3)cc21 | 1830 nM
CC(C)n1nc(N2CC(C(=O)NC3CC(O)C3)C2)c2cnc(Nc3ccnc(-c4cnn(S(=O)(=O)C5CC5)c4)n3)cc21 (configuration not stated) | > 10000 nM
CC(C)n1nc(N2CC3CCC(C2)O3)c2cnc(Nc3ccnc(-c4cnn(S(=O)(=O)C5CC5)c4)n3)cc21 | 1210 nM

Further compounds by falling EC50, results first:

EC50 | Compound
881 nM | CCC(C)n1nc(N2CC3(COC3)C2)c2cnc(Nc3ccnc(N4CCC(C)(O)CC4)n3)cc21 (configuration not stated)
831 nM | CC(C)n1nc(N2CC[C@@H](O)C2)c2cnc(Nc3ccnc(N4CCC(C)(O)CC4)n3)cc21
761 nM | CCC(C)n1nc(N2CC(N)C(F)(F)C2)c2cnc(Nc3ccnc(N4CCC(C)(O)CC4)n3)cc21 (configuration not stated)
586 nM | CCC(C)n1nc(N2CC[C@@H](O)C2=O)c2cnc(Nc3ccnc(-c4cnn(S(=O)(=O)C5CC5)c4)n3)cc21 (some centres not stated)
521 nM | CC[C@H](C)n1nc(N2CC[C@@H](O)C2)c2cnc(Nc3ccnc(N4CC[C@](C)(O)[C@H](F)C4)n3)cc21
498 nM | CC(C)n1ncc2cnc(Nc3ccnc(-c4cnn(CC5CC5)c4)n3)cc21
431 nM | CC(C)n1nc(N2CCC3(COC3)C2)c2cnc(Nc3ccnc(-c4cnn(S(=O)(=O)C5CC5)c4)n3)cc21
377 nM | CC1CN(c2nn(C(C)C)c3cc(Nc4ccnc(-c5cnn(S(=O)(=O)C6CC6)c5)n4)ncc23)C(=O)N1 (configuration not stated)
348 nM | CC[C@H](C)n1nc(N2CC3(COC3)C2)c2cnc(Nc3ccnc(N4CC[C@@H](O)[C@@H](F)C4)n3)cc21
312 nM | CC(C)n1nc(N2CC(F)(F)C2)c2cnc(Nc3ccnc(-c4cnn(S(=O)(=O)C5CC5)c4)n3)cc21
289 nM | CC(C)n1nc(N2CC(C)(O)C2)c2cnc(Nc3ccnc(-c4cnn(S(=O)(=O)C5CC5)c4)n3)cc21
266 nM | CC(O)C1CN(c2nn(C(C)C)c3cc(Nc4ccnc(-c5cnn(S(=O)(=O)C6CC6)c5)n4)ncc23)C1 (configuration not stated)
236 nM | CCS(=O)(=O)n1cc(-c2nccc(Nc3cc4c(cn3)c(N3CC(C(=O)N(C)C)C3)nn4C(C)C)n2)cn1
232 nM | CC(C)n1nc(N2CCCC2=O)c2cnc(Nc3ccnc(-c4cnn(S(=O)(=O)C5CC5)c4)n3)cc21
206 nM | CC(C)n1nc(N2CCOC2=O)c2cnc(Nc3ccnc(-c4cnn(S(=O)(=O)C5CC5)c4)n3)cc21
190 nM | CC(C)n1nc(N2CC[C@@H](O)C2)c2cnc(Nc3ccnc(-c4cnn(S(=O)(=O)C5CC5)c4)n3)cc21
167 nM | CC(C)n1nc(NC2COC2)c2cnc(Nc3ccnc(-c4cnn(S(=O)(=O)C5CC5)c4)n3)cc21
144 nM | CC(C)n1nc(N2CC(C#N)C2)c2cnc(Nc3ccnc(-c4cnn(S(=O)(=O)C5CC5)c4)n3)cc21
110 nM | CC(C)n1ncc2cnc(Nc3ccnc(N4CCC(O)C(C)(C)C4)n3)cc21 (configuration not stated)
